SMILES strings stand for the structures. The source made the active and inactive calls.

Data set [1] has as its system Mus musculus. Briefly: Anticonvulsant activity against maximal electroshock-induced seizure in CD1 mouse at 100 mg/kg, po after 0.5 hrs. The format is functional, organism-based. Set-up: dose 100 mg/kg.
For data set [2], the system named is Mus musculus. Put plainly: Anticonvulsant activity against maximal electroshock-induced seizure in CD1 mouse at 100 mg/kg, po after 2 hrs. The data set is classed as functional, organism-based. Also on record: dose 100 mg/kg.
The subject of data set [3] is Mus musculus. Put plainly: Anticonvulsant activity against maximal electroshock-induced seizure in CD1 mouse at 300 mg/kg, po after 0.5 hrs. The format is functional, organism-based. Also on record: dose 300 mg/kg.
Data set [4] concerns Mus musculus. Briefly: Anticonvulsant activity against maximal electroshock-induced seizure in po dosed CF1 mouse after 1 hr. The format is functional.
Data set [5] relates to Mus musculus. Put plainly: Neurotoxicity in mouse assessed as motor impairment 400 mg/kg, ip by rotarod test. The data set is classed as toxicity, organism-based. Also on record: dose 400 mg/kg, route intraperitoneal. The note with it: in vivo.
The target of data set [6] is T1, Carbonic anhydrase 2 (Homo sapiens, UniProt P00918). Put plainly: Inhibition of human carbonic anhydrase 2 by fluorimetric assay.
The subject of data set [7] is Rattus norvegicus. Briefly: Anticonvulsant activity against electric stimulation-induced pharmacoresistant limbic epilepsy in ip dosed Sprague-Dawley rat kindling model assessed as reduction of seizure severity and excitability administered 15 mins after last electric stimulation measured after 15 mins to 1 hr. The data set is classed as functional. The settings on record: Limbic system.

The target of data set [8] is Sodium channel protein type 2 subunit alpha (Rattus norvegicus, UniProt P04775). Briefly: Inhibition of rat Nav1.2 channel expressed in chinese hamster CHL1610 cells at preconditioning pulse of -67 mV after 2 to 3 mins by whole-cell patch-clamp technique. The format is cell-based.
In data set [9] the test system is Mus musculus. Put plainly: Anticonvulsant activity against maximal electroshock-induced seizure in CD1 mouse at 300 mg/kg, po after 2 hrs. The data set is classed as functional, organism-based. Also on record: dose 300 mg/kg.
Data set [10] deals with Rattus norvegicus. Put plainly: Anticonvulsant activity against maximal electroshock-induced seizure in po dosed rat. The data set is classed as functional.
Data set [11] concerns Mus musculus. Briefly: Anticonvulsant activity against bicuculline-induced seizure in ip dosed CF1 mouse after 0.25 hrs. The format is functional.
Data set [12] relates to Mus musculus. Put plainly: Anticonvulsant activity against pentylenetetrazole-induced seizure in ip dosed CF1 mouse after 0.25 hrs. The format is functional.
Data set [13] concerns Mus musculus. Briefly: Anticonvulsant activity against pentylenetetrazole-induced seizure in CF1 mouse assessed as increase in threshold of seizure twitch at 107 mg/kg, ip administered 15 mins before pentylenetetrazole infusion. The format is functional. The note with it: route intraperitoneal.
Data set [14] deals with Mus musculus. Put plainly: Anticonvulsant activity against pentylenetetrazole-induced seizure in CF1 mouse assessed as increase in seizure threshold for clonus at 107 mg/kg, ip administered 15 mins before pentylenetetrazole infusion. The data set is classed as functional. The settings on record: route intraperitoneal.
Data set [15] relates to Mus musculus. Put plainly: Anticonvulsant activity against pentylenetetrazole-induced seizure in ip CF1 mouse assessed as increase in threshold of seizure twitch at ED50 administered 15 mins before pentylenetetrazole infusion. The format is functional, organism-based.
Data set [16] concerns Mus musculus. Briefly: Anticonvulsant activity against pentylenetetrazole-induced seizure in ip dosed CF1 mouse assessed as increase in seizure threshold for clonus at ED50 administered 15 mins before pentylenetetrazole infusion. The data set is classed as functional, organism-based.
Data set [17] relates to Mus musculus. Put plainly: Anticonvulsant activity against pentylenetetrazole-induced seizure in ip dosed CF1 mouse assessed as increase in seizure threshold for clonus at TD50 administered 15 mins before pentylenetetrazole infusion. The data set is classed as functional, organism-based.
For data set [18], the system named is Mus musculus. Put plainly: Anticonvulsant activity against pentylenetetrazole-induced seizure in ip dosed CF1 mouse assessed as increase in threshold of seizure twitch at TD50 administered 15 mins before pentylenetetrazole infusion. The data set is classed as functional, organism-based.
In data set [19] the test system is Rattus norvegicus. Briefly: Anticonvulsant activity against maximal electroshock-induced seizure in po dosed Sprague-Dawley rat after 2 hrs. The data set is classed as functional.
In data set [20] the test system is Rattus norvegicus. Put plainly: Anticonvulsant activity against maximal electroshock-induced seizure in po dosed rat after 4 hrs. The data set is classed as functional.
The test system of data set [21] is Mus musculus. Briefly: Anticonvulsant activity against audiogenic seizures in ip dosed AGS mouse assessed as inhibition of hindlimb tonic extension administered 1 hr prior to 11 kHz sound induction. The format is functional.
Data set [22] has as its system Mus musculus. Briefly: Anticonvulsant activity against maximal electroshock-induced seizure in CD1 mouse at 100 to 300 mg/kg, po after 0.5 to 8 hrs. The data set is classed as functional, organism-based.
Data set [23] has as its system Rattus norvegicus. Briefly: Anticonvulsant activity against electric stimulation-induced pharmacoresistant limbic epilepsy in Sprague-Dawley rat kindling model assessed as reduction of seizure severity and excitability at > 26 mg/kg, ip administered 15 mins after last electric stimulation. The format is functional, organism-based. Also on record: dose 26 mg/kg. The note with it: Limbic system.

Data set [24] concerns the target Sodium channel protein type 2 subunit alpha (Rattus norvegicus) (UniProt P04775). Briefly: Inhibition of rat Nav1.2 channel expressed in chinese hamster CHL1610 cells at preconditioning pulse of -107 to -67 mV up to 300 uM after 2 to 3 mins by whole-cell patch-clamp technique. The data set is classed as cell-based.
Data set [25] concerns Mus musculus. Put plainly: Anticonvulsant activity against maximal electroshock-induced seizure in CD1 mouse at 300 mg/kg, po after 4 hrs. The format is functional, organism-based. Also on record: dose 300 mg/kg.
Data set [26] deals with Mus musculus. Put plainly: Anticonvulsant activity against maximal electroshock-induced seizure in po dosed CD1 mouse after 0.5 hrs. The format is functional.
Data set [27] deals with T1, Carbonic anhydrase 2. Briefly: Inhibition of human carbonic anhydrase 2 at 100 uM by CO2 hydration assay.
Data set [28] has as its system Mus musculus. Put plainly: Anticonvulsant activity against picrotoxin-induced seizure in ip dosed CF1 mouse after 0.25 hrs. The data set is classed as functional.
Data set [29] relates to Rattus norvegicus. Put plainly: Anticonvulsant activity against electric stimulation-induced pharmacoresistant limbic epilepsy in Sprague-Dawley rat kindling model assessed as reduction of seizure severity and excitability at > 300 mg/kg, ip administered 15 mins after last electric stimulation. The format is functional, organism-based. Also on record: dose 300 mg/kg. The note with it: Limbic system.

Data set [30] has as its target T1, Carbonic anhydrase 2.
Description: Inhibition of human carbonic anhydrase 2 by CO2 hydration assay
Where [31] appears, read: Mus musculus, CF1, po, 1 h, read-out: ED50.

Sodium channel protein type 2 subunit alpha, sequence (P04775 whole entry): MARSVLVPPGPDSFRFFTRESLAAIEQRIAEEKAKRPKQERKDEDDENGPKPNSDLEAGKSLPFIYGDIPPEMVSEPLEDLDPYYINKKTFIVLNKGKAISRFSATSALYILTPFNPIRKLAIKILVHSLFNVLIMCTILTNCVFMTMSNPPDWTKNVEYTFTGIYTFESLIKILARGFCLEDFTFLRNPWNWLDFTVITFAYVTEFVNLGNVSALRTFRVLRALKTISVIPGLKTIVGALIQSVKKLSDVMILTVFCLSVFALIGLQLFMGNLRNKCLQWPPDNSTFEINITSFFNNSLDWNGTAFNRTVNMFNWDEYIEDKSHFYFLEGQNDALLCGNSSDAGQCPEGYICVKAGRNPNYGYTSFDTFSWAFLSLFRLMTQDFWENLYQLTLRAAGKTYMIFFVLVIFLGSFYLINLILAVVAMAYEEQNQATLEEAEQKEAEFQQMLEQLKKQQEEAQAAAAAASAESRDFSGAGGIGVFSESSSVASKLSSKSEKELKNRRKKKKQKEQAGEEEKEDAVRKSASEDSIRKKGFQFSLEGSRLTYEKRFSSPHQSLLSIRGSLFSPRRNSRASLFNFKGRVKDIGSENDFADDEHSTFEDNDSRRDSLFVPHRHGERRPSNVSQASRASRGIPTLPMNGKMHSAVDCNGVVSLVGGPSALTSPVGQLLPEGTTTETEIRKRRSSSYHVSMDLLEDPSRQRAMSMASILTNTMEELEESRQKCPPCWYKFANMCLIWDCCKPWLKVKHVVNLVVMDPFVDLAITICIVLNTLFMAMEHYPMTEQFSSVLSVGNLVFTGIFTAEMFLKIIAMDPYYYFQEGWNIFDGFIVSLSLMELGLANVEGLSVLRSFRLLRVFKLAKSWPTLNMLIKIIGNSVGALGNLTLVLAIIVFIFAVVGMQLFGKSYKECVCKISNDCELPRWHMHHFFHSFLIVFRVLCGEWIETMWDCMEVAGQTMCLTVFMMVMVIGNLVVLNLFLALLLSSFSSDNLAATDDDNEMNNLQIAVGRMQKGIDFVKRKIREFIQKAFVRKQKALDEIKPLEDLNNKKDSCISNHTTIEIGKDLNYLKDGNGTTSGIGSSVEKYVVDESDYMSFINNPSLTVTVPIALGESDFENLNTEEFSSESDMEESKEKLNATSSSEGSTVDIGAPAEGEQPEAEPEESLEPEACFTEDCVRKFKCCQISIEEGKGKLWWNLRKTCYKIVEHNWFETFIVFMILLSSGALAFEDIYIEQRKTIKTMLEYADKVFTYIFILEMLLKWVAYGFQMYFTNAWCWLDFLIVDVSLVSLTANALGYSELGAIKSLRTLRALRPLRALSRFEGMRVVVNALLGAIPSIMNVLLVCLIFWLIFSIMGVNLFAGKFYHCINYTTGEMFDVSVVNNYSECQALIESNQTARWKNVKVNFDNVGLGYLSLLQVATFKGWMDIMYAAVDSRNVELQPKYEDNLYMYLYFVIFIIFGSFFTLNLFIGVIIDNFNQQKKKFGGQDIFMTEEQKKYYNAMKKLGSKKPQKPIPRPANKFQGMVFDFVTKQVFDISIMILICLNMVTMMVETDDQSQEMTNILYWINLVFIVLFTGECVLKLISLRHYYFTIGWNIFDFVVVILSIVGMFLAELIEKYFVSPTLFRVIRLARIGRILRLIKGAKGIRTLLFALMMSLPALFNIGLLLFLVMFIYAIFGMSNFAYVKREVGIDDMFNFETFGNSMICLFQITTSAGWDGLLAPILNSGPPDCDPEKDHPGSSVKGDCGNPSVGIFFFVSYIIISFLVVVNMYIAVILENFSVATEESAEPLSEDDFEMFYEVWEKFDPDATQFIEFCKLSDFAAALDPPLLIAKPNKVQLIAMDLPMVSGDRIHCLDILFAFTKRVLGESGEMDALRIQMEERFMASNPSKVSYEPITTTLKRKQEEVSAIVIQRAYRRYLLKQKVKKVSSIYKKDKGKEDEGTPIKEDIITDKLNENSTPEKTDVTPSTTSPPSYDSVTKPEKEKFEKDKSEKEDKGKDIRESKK
Sodium channel protein type 2 subunit alpha (Rattus norvegicus), sequence (P04775 whole entry, looked up): as the sequence (P04775 whole entry) above

In the case of `NS(=O)(=O)NCc1coc2ccccc12`, the outcome in the data set on Mus musculus [1] and with Mus musculus [2] was inactive. Besides, the outcome in the data set on Mus musculus [3] was Active. Moreover, the 50% effective dose (ED50) with Mus musculus [4] (setting [31]) is greater than 400 mg/kg. Moreover, the Activity result in the data set with Mus musculus [5] is given as “Non-toxic”.
For `NS(=O)(=O)NCc1csc2ccc(Br)cc12`, at Carbonic anhydrase 2 [6], half-maximal inhibition (IC50) required 100 µM.
With `CCC1(C)CC(=O)NC1=O` (stereo not drawn), in the data set with Rattus norvegicus [7], the result was inactive.
For the molecule `O=C1NC(=O)C(c2ccccc2)(c2ccccc2)N1` [PHENYTOIN], the result in the data set with Rattus norvegicus [7] was Active. The same molecule registered an IC50 in data set [8] of 22 µM.
For the molecule `NS(=O)(=O)NCc1c[nH]c2ccccc12`, in the data set with Mus musculus [2], the result was inactive. Further, the midpoint of inhibition at Carbonic anhydrase 2 [6], the IC50, lay at 300 µM.
Turning to `NS(=O)(=O)NCc1csc2ccc(Cl)cc12`, the outcome in the data set on Mus musculus [1], in the data set with Mus musculus [2] and in the data set on Mus musculus [3] was inactive. Further, inhibition against Carbonic anhydrase 2 [6] was half-maximal at 8.4 µM (IC50).
Consider `CC1(C)O[C@@H]2[C@@H](CO[C@@]3(COS(N)(=O)=O)OC(C)(C)O[C@@H]23)O1` [TOPIRAMATE], for which the outcome in the data set with Mus musculus [9], in the data set with Mus musculus [15], in the data set on Mus musculus [16], in the data set on Mus musculus [17] and with Mus musculus [18] was inactive. For the same molecule, the ED50 in the data set on Mus musculus [4] was 43.8 mg/kg; in the data set with Rattus norvegicus [10], 6.6 mg/kg; in the data set on Mus musculus [11], greater than 500 mg/kg; in the data set on Mus musculus [12], greater than 500 mg/kg; in the data set on Rattus norvegicus [19] it was 6.6 mg/kg; in the data set with Rattus norvegicus [20] it was 53.5 mg/kg. The ED50 in the data set on Mus musculus [21] is 4.2 mg/kg. For the same molecule, the Activity in the data set on Mus musculus [13] and in the data set on Mus musculus [14] was 0% in each case. It took 97 µM to reach half-maximal inhibition in data set [8] (IC50).
Regarding `Cn1cc(CNS(N)(=O)=O)c2ccccc21`, the result in the data set on Mus musculus [1] and with Mus musculus [2] was inactive. The result in the data set on Mus musculus [3] was Active. The ED50 in the data set on Mus musculus [4] (setting [31]) came to 345 mg/kg.
As for `CCCCNS(N)(=O)=O`, the outcome in the data set with Mus musculus [22] was inactive.
For the molecule `Cc1oc2ccccc2c1CNS(N)(=O)=O`, the outcome in the data set on Mus musculus [2] was inactive.
On to `NC(=O)N1c2ccccc2C=Cc2ccccc21`, for which the result with Rattus norvegicus [23] was Active.
Regarding `NS(=O)(=O)NCc1csc2ccc(F)cc12`, the result in the data set on Mus musculus [1] was inactive. In addition, in the data set on Mus musculus [4] (setting [31]), the ED50 came to 231 mg/kg.
Turning to `NCC1(CC(=O)O)CCCCC1`, the inhibition entry in [24] is “inactive”.
For the molecule `NS(=O)(=O)NCc1ccccc1`, the result with Mus musculus [1], in the data set with Mus musculus [3] and in the data set on Mus musculus [25] was Active. The same molecule yielded an ED50 in the data set on Mus musculus [26] of 440 mg/kg.
For the molecule `CC[C@@H](C(N)=O)N1CCCC1=O`, the ED50 with Mus musculus [11] (Mus musculus, CF1, ip, 0.25 h, read-out: ED50) was greater than 540 mg/kg.
Take `NS(=O)(=O)NCc1cccc2ccccc12`: the ED50 with Mus musculus [4] (setting [31]) is 123 mg/kg.
In the case of `Cc1ccc2scc(CNS(N)(=O)=O)c2c1`, the ED50 with Mus musculus [4] (setting [31]) was greater than 400 mg/kg. Besides, the IC50 against Carbonic anhydrase 2 [6] was determined as 45 µM. On Carbonic anhydrase 2 [27], this molecule gave an inhibition of 44%.
In data set [8], `Nc1nnc(-c2cccc(Cl)c2Cl)c(N)n1` [LAMOTRIGINE] showed a concentration for half-maximal inhibition (IC50) of 35 µM.
`CCCC(CCC)C(=O)O` [VALPROIC ACID]: the ED50 in the data set on Mus musculus [28] was greater than 200 mg/kg. Also, the result in the data set on Rattus norvegicus [29] was Active.
Take `CC(NS(N)(=O)=O)c1csc2ccccc12` (racemic): the IC50 against Carbonic anhydrase 2 [30] was determined as 130 µM.

These data come from ChEMBL document CHEMBL1153762, “Novel, broad-spectrum anticonvulsants containing a sulfamide group: advancement of N-((benzo[b]thien-3-yl)methyl)sulfamide (JNJ-26990990) into human clinical studies” (J Med Chem, 2009).
